The values that follow come from paper PMC7736581, “Activation of the IRE1 RNase through remodeling of the kinase front pocket by ATP-competitive ligands” (Nature Communications, 2020).

Among the targets are KDR (Homo sapiens, UniProt P35968); Met (Homo sapiens, UniProt P08581); JAK1 (Homo sapiens, UniProt P23458); BTK (Homo sapiens, UniProt Q06187); TYK2 (Homo sapiens, UniProt P29597).
What all share (assay): biochemical
Holding throughout (parameters): Invitrogen kinase panel: Z'Lyte activity (ATP at Km) or LanthaScreen competitive ATP-site binding, percent inhibition
A general note: TR-FRET usually uses a lanthanide donor and a delayed reading to cut background.

The target of a further experiment is T1, TAK1-TAB1 (Homo sapiens, UniProt O43318).
T1 construct: gene MAP3K7
T1 sequence (O43318 1-606): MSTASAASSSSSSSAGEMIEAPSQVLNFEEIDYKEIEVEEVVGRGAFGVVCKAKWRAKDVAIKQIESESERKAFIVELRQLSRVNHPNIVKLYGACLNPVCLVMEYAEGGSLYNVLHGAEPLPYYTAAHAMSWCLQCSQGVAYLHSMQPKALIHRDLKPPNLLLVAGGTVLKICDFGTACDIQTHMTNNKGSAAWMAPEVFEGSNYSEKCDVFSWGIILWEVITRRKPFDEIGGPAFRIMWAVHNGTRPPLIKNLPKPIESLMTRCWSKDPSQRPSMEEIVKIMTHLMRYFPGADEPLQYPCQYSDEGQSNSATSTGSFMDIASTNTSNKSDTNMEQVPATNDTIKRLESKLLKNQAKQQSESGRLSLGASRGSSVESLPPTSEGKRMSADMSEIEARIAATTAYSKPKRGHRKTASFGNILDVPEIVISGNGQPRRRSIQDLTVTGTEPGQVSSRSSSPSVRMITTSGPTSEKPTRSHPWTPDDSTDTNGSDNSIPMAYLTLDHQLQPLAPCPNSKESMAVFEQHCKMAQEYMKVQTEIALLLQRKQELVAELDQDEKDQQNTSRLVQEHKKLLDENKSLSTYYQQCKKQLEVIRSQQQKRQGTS
T1 sequence (Q15750 1-504 partner): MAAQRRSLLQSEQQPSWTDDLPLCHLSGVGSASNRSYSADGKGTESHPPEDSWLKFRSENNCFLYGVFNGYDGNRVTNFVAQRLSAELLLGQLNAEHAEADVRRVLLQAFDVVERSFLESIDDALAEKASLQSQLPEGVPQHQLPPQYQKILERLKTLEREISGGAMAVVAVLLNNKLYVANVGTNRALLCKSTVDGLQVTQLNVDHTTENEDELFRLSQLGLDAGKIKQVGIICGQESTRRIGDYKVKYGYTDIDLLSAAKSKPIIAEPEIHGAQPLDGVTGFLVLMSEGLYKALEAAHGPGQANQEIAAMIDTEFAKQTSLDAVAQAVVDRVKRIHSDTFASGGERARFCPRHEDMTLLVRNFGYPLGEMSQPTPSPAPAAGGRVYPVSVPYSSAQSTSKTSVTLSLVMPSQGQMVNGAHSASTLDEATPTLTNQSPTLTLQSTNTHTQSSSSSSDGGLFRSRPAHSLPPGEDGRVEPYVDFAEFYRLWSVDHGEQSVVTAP

A further experiment has as its target T2, Srm (Homo sapiens, UniProt Q9H3Y6).
T2 construct: gene SRMS

For a further experiment, the target named is T3, Yes (Homo sapiens, UniProt P07947).
T3 construct: gene YES1

The next experiment has as its target T4, GSK3_beta (Homo sapiens, UniProt P49841).
T4 construct: gene GSK3B

The target of the next experiment is T5, TBK1 (Homo sapiens, UniProt Q9UHD2).
T5 sequence (Q9UHD2 1-729): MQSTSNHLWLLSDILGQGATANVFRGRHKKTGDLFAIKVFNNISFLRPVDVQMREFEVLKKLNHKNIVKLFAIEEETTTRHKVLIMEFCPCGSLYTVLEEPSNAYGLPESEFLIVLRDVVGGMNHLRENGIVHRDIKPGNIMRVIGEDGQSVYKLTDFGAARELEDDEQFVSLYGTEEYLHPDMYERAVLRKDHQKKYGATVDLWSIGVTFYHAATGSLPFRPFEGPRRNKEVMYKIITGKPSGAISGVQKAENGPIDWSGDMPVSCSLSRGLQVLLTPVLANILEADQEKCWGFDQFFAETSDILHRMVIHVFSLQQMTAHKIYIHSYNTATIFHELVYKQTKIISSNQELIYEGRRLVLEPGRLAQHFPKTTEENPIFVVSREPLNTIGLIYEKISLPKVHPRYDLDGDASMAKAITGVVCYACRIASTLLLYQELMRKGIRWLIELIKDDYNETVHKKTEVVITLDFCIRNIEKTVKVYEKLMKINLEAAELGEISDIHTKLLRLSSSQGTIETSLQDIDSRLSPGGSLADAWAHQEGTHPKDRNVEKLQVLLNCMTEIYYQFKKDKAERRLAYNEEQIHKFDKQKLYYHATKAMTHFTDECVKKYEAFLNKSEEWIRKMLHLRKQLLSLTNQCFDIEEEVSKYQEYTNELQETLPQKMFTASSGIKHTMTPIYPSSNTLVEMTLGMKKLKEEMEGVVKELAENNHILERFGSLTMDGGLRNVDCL

The target in the next experiment is T6, RSK2 (Homo sapiens, UniProt P51812).
T6 construct: gene RPS6KA3
T6 sequence (P51812 whole entry): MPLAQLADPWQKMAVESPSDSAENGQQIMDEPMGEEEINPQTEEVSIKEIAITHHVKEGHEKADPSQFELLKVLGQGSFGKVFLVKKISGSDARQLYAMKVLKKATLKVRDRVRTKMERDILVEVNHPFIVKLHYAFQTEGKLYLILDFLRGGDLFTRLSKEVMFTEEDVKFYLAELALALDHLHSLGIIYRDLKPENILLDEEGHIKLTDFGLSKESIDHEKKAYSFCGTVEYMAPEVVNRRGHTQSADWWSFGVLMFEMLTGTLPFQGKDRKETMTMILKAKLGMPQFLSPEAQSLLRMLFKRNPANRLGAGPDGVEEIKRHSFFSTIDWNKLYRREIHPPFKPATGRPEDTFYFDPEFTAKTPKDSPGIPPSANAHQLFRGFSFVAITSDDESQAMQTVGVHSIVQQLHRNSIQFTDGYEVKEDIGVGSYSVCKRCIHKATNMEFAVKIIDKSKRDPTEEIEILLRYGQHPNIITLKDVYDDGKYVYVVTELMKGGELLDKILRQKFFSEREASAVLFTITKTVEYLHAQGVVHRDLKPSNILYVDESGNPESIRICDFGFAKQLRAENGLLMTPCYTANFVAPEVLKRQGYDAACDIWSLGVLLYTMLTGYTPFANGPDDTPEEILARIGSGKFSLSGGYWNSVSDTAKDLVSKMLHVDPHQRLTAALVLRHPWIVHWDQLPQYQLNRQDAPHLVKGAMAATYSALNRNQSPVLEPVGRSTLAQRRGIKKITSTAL

T3 sequence (P07947 whole entry): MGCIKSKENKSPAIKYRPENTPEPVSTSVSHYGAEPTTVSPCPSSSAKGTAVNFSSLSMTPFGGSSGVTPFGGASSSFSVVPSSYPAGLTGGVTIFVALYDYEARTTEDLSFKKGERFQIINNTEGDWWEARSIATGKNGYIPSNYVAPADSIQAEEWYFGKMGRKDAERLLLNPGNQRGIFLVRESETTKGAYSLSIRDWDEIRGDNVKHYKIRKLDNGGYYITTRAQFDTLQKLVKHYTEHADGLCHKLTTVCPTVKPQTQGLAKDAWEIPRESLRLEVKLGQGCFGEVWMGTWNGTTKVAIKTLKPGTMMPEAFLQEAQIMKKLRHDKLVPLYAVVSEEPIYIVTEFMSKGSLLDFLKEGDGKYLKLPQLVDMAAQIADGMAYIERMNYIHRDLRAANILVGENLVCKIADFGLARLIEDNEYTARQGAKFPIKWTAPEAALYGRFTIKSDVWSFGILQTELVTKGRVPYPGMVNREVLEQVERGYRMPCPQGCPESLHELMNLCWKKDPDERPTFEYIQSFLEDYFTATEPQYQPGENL
T4 sequence (P49841 whole entry): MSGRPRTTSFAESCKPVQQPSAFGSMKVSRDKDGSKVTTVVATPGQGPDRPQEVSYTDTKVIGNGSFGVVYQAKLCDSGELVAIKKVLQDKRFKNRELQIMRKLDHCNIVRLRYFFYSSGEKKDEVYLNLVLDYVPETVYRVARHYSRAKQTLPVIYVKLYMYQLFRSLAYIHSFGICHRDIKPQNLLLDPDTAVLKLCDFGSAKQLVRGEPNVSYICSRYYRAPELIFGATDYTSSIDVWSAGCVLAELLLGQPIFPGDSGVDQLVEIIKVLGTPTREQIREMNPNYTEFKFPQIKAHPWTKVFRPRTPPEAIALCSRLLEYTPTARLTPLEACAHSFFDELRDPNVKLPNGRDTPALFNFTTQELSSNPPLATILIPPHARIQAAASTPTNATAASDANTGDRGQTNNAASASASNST
TYK2, sequence (P29597 whole entry): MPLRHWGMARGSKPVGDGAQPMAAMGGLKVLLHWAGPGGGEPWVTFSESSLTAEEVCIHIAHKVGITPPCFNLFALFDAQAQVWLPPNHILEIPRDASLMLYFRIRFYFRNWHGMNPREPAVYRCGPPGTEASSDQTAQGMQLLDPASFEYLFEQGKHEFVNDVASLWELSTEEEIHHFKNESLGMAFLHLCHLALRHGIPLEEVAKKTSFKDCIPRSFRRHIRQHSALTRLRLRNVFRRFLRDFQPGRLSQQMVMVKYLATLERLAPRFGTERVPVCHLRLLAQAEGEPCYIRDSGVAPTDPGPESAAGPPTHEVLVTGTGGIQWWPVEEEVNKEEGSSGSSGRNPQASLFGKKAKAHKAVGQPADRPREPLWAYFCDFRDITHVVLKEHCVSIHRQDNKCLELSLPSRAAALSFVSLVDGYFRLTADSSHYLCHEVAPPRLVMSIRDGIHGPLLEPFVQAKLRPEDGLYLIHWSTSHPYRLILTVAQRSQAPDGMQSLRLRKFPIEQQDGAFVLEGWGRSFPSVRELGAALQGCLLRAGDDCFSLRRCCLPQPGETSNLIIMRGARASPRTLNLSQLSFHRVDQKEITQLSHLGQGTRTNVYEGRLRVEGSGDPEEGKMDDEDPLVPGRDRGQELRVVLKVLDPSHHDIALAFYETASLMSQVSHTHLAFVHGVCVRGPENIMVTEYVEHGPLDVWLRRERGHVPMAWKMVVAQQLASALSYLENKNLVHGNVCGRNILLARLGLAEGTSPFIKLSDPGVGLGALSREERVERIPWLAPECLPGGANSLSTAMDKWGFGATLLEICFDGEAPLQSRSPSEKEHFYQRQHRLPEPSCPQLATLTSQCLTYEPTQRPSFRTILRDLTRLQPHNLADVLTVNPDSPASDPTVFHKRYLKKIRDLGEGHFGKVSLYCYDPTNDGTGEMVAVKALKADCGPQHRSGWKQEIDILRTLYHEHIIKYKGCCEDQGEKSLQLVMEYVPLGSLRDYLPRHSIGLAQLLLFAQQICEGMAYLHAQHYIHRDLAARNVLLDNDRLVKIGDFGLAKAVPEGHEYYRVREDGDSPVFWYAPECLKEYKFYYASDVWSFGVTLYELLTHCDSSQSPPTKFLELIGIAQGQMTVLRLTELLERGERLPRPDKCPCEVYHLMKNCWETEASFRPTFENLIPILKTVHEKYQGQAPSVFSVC
T2 sequence (Q9H3Y6 whole entry): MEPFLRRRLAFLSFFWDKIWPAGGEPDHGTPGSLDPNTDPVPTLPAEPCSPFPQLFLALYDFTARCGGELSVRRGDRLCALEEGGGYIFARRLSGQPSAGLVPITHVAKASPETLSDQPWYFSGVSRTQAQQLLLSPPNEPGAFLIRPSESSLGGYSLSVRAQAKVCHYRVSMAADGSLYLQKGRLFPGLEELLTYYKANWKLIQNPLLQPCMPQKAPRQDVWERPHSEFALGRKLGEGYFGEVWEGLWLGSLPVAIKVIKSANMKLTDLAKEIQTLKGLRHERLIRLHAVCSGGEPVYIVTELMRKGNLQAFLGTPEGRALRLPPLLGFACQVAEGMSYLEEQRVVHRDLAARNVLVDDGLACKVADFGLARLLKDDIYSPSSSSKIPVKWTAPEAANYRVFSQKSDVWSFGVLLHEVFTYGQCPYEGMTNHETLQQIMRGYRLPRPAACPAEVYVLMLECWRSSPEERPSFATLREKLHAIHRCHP
JAK1, sequence (P23458 whole entry): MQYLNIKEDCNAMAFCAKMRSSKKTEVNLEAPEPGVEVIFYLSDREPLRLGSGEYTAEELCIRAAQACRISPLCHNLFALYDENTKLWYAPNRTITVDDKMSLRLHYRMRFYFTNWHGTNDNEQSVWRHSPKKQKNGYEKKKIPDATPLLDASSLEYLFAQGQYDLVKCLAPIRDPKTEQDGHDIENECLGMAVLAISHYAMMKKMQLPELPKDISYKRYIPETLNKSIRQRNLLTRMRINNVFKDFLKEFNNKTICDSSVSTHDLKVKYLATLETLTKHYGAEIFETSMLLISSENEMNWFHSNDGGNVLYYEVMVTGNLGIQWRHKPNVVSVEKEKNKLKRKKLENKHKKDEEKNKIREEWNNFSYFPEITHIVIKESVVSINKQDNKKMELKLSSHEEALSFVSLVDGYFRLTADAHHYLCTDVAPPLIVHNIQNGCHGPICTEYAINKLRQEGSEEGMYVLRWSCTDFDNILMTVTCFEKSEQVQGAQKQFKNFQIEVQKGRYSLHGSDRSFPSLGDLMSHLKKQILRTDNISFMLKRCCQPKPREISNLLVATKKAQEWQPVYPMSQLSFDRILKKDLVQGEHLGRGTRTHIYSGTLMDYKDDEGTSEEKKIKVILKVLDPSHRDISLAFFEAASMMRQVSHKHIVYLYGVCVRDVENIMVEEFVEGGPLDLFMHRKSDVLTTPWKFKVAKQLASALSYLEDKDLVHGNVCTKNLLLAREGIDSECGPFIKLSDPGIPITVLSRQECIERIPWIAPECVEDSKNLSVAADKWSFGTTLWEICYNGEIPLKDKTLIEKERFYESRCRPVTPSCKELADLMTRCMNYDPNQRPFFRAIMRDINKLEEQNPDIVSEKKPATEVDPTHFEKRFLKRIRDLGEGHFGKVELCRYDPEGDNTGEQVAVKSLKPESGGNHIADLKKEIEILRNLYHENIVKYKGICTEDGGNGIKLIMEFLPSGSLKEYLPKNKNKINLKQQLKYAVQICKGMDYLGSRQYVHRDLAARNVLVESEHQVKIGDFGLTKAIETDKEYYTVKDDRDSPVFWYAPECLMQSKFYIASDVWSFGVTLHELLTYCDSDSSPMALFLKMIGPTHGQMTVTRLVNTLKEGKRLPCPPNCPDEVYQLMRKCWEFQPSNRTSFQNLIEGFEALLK

The inhibition is the change of the read-out against control, counted positive when it falls. Regarding `O=c1cc(-c2n[nH]c3ncc(-c4c(F)cccc4F)cc23)nc(N2CCC(O)CC2)[nH]1` [G-9807], the inhibition at 1 µM on KDR was 96.3%; on TAK1-TAB1, 94.3%; on Met, 88.8%; on JAK1, 68.7%; on Srm it was 67.6%; at Yes it was 52.4%. Further, the inhibition at 1 µM at GSK3_beta is 99.1%; on BTK, 35.9%; at TBK1, 95.7%; at TYK2 it was 84.5%; at RSK2 it was 98%.

Consider `CC#CC(=O)Nc1cccc2c(Oc3ncccc3-c3ccnc(N[C@H]4CCCNC4)n3)c(C)ccc12` [G-7658], for which the inhibition at 1 µM is -4% at KDR; -2.5% on TAK1-TAB1; 5% at Met; 0.5% at JAK1; 3% at Srm; 8% at Yes. Further, the inhibition at 1 µM on GSK3_beta was 7.5%; on BTK it was 5.5%; on TBK1 it was 0%; at TYK2 it was -2%; at RSK2, 0%.

Consider `CCOC(=O)Nc1cccc2c(Oc3ncccc3-c3ccnc(N[C@H]4CCCNC4)n3)c(C)ccc12` [G-1749], for which the inhibition at 1 µM on KDR is -18%; on TAK1-TAB1 it was 23%; at Met it was 4%; on JAK1 it was -4%; on Srm, -4.5%; at Yes, 7.5%. In addition, the inhibition at 1 µM is 0.5% at GSK3_beta; 1.5% on BTK; -0.5% on TBK1; -3% at TYK2; 3.5% on RSK2.
